Laboratory results published in PubChem BioAssay AID1338 (Columbia University Molecular Screening Center, 2008).
The source made the active and inactive calls.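 The calls were made as follows: active = normalized inhibition above 25%; inactive = normalized inhibition below 25%.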

These compounds were tested against Tyrosine-protein phosphatase non-receptor type 22 (Homo sapiens) (UniProt Q9Y2R2) (assay: LYP phosphatase inhibitors with catalase present, biochemical, catalase added, Infinite200, 384-well (AID 1338)). Conditions: Recombinant LYP, DiFMUP fluorescence, at 10 µM, hits give high values.
Chain of Tyrosine-protein phosphatase non-receptor type 22 (Homo sapiens) (Q9Y2R2 whole entry, looked up): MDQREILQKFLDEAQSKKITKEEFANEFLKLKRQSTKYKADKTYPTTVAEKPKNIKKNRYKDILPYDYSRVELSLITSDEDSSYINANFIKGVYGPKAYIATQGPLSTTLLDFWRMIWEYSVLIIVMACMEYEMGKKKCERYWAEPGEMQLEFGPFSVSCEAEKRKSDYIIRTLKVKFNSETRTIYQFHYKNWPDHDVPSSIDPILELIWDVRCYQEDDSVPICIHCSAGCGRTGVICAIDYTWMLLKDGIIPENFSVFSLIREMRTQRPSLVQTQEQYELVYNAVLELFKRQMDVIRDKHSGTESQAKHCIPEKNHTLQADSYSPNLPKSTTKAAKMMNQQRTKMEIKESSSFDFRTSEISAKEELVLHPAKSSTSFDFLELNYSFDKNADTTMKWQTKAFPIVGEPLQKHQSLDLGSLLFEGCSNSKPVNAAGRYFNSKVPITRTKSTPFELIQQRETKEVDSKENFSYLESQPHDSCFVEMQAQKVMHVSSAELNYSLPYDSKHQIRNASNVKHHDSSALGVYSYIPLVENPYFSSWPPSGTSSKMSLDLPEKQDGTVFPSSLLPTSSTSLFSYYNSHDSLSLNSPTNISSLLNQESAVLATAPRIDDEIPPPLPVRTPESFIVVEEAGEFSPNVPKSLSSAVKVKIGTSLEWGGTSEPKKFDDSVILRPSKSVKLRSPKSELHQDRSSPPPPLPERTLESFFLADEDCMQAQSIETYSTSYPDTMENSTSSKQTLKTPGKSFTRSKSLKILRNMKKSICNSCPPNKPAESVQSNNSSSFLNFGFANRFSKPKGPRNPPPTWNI

In order of falling inhibition:
1. COc1cccc(OC)c1-c1nn2c(-c3cc(-c4ccccc4)n[nH]3)nnc2s1  54.4%
2. O=C(c1cccs1)c1no[n+]([O-])c1C(=O)c1cccs1  51.5%
3. COc1cc(-c2nnc(SCc3cc(=O)oc4cc(O)c(O)cc34)o2)cc(OC)c1OC  49%
4. O=C(O)CCN1C(=O)/C(=C/c2ccc(-c3nc4ccccc4s3)o2)SC1=S  48.9%
5. Cc1ccc(NC(=O)CN2C(=O)S/C(=C\c3cccn3-c3cccc(C(=O)O)c3)C2=O)c(C)c1  48.2%
6. O=C(O)CCCN1C(=O)/C(=C/c2ccc(-c3nc4ccccc4s3)o2)SC1=S  36.5%
7. Cn1nc(-c2ccc(Cl)cc2)nc2c(=O)n(C)c(=O)nc1-2  34.1%
8. Nc1c(C(=O)Nc2nc3ccccc3s2)sc2nc(-c3cccs3)ccc12  32.2%

With CC(C)C(C(=O)O)N1C(=O)/C(=C/C=C/c2ccco2)SC1=S (stereo unspecified) the inhibition was 13% (inactive).
With CC(C(=O)O)N1C(=O)/C(=C/C=C/c2ccco2)SC1=S (stereo unspecified) the inhibition was 2.7% (inactive).
O=[N+]([O-])c1cc(/C=N\Nc2nccs2)ccc1O was tested, and the inhibition was 4% (inactive).
